From paper PMC8831520, “Small molecule SWELL1 complex induction improves glycemic control and nonalcoholic fatty liver disease in murine Type 2 diabetes” (Nature Communications, 2022)
Entries after “also recorded” stand apart in the source; their conditions may differ.

What was measured:
eWAT adipocytes = experiment: Adipocyte size in eWAT of treated mice; assay type: in vivo, mouse; settings: 5 days, vs vehicle
Experimental: Mice epididymal white adipose tissue (eWAT) was isolated and fixed in 10% neutral buffer formalin for 24 h at 4 °C. The formalin-fixed eWAT tissue was washed twice with 1XPBS buffer and dehydrated in a series of ethanol gradient. The dehydrated tissue was embedded in paraffin wax and 10 μm sections were cut by automated microtome and mounted on positively charged slides. Hematoxylin and eosin staining of the slides was performed at the Musculoskeletal Research Center, Washington University in St. Louis. Images were captured by Zeiss Axioscop with 10X objective and analyzed by ImageJ software. Measurement of adipocyte area was performed using the polygon selection tool of ImageJ. All quantifications were performed by blinded independent observers.

[1] = target: T1, R103E-SWELL1 expressing HEK-293 cells (R103E O/E) (Homo sapiens, UniProt Q8IWT6, R103E); experiment: ICl,SWELL inhibition in SWELL1-R103E overexpressing cells, patch-clamp; assay type: cell-based
T1 construct: P2A:EGFP (C); host or cells: HEK-293, Lipofectamine 2000, co-transfected with CMV-Cre; EGFP+ cells recorded
Text: See also Fig. 6 for a schematic representation. […] For SWELL1-R103E overexpression experiments, HEK-293 cells were transfected with either control Cre plasmid (CMV-Cre, McDonnell Genome Institute in Washington University in St. Louis) or Cre plus R103E-GFP (CAG-LoxP-stop-LoxP-SWELL1-R103E/3XFlag:P2A:EGFP, Vector Biolabs) plasmid using Lipofectamine 2000 as per the manufacturer’s protocol. SWELL1-R103E expressing HEK-293 cells were identified by EGFP + fluorescence.

HFD-T2D mice = experiment: NAFLD in HFD-fed mice: liver triglycerides, histology, NAS; assay type: in vivo, mouse
Experimental: Gross liver weights were measured and identical sections from the right medial lobe of the liver were dissected for further examinations. Total triglyceride content was determined by homogenization of 10–50 mg of tissue in 1.5 ml of chloroform:methanol (2:1 v/v) followed by centrifugation at 16,260×g for 10 min at 4 °C. A 20 µl of the supernatant was evaporated in a 1.5 ml microcentrifuge tube for 30 min. Triglyceride content was determined by adding 100 µl of Infinity Triglyceride Reagent (Fisher Scientific) to the dried sample followed by 30 min incubation at RT. The samples were then transferred to a 96-well plate along with standards (0–2000 mg/dl) and absorbance was measured at 540 nm and the final concentration was determined by normalizing to tissue weight. For histological examination, liver sections were fixed in 10% zinc formalin and paraffin-embedded for sectioning. Hematoxylin and eosin (H&E) stained sections were then assessed for steatosis grade, lobular inflammation, and hepatocyte ballooning for nonalcoholic fatty liver disease (NAFLD) scoring[46],[95],[96].

primary hepatocytes = experiment: Signaling in cultured primary hepatocytes; assay type: cell-based, mouse; settings: 10 µM, 24–48 h, SWELL1-dependent
Experimental: For primary hepatocytes isolation, the SWELL1^fl/fl (Wildtype, WT) and Albumin-Cre/SWELL1^fl/fl (Knockout, KO) mice were anesthetized using isoflurane. A 24 G i.v. catheter was inserted into the portal vein and a buffer containing HBSS (Ca^2+ and Mg^2+ free) + 0.5 mM EGTA was perfused through the liver at a rate of 4.5 mL/min. The portal vein was quickly cut after the perfusion began. The liver was perfused until it was free from blood and subsequently perfused with DMEM + 1x Pyruvate+ Type IV Collagenase (Sigma C5138) (1 mg/mL) for 4–5 min until the liver was soft. The liver was excised and put into 10 mL DMEM + collagenase solution. The tissue was broken down by agitation and passed through 25- and 10-mL pipette until the cells were free. The cells were suspended in 15 mL cold DMEM + 10% FBS + 1% P/S (penicillin and streptomycin). The cells were then passed through a 100 µm filter and spun at 50×g for 2 min. The supernatant was discarded and the cell pellet was washed with 25 mL of DMEM + 10% FBS + 1% P/S media three times. Cells were checked for viability by diluting 1:2 with Trypan blue and batches with >80% viability were used. The hepatocytes were then plated on Type I Collagen (75 µg/mL) coated dish with a density of 500,000 cells per well (6-well) in DMEM + 10% FBS + 1% P/S media.

T1 sequence (Q8IWT6 whole entry R103E): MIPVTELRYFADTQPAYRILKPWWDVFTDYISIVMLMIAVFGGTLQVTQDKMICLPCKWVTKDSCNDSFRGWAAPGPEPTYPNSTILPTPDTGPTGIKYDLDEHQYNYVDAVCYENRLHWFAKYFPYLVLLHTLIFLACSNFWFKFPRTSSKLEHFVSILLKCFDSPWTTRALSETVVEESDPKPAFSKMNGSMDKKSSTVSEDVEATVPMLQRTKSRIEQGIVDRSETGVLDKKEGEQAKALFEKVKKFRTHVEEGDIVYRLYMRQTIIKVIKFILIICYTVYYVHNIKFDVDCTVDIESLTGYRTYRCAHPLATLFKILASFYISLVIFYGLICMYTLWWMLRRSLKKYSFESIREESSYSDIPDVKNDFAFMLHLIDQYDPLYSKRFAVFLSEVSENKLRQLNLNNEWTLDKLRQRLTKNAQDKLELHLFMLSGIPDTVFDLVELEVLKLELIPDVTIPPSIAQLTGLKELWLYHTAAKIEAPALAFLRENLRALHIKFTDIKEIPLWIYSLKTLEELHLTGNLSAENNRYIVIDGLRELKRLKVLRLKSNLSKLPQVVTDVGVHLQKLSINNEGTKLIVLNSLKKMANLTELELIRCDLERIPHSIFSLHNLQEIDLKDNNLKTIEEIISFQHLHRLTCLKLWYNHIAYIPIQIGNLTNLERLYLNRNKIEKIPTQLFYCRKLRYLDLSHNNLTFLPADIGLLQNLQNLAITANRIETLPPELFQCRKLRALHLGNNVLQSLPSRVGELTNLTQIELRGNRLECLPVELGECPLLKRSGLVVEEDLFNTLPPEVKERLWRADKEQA

## CCCCC1(C2CCCC2)Cc2cc(OCCCC(=O)O)c(Cl)c(Cl)c2C1=O (centres unmarked) [SN-401, 4-((2-butyl-6,7-dichloro-2-cyclopentyl-1-oxo-2,3-dihydro-1H-inden-5-yl)oxy)butanoic acid]
eWAT adipocytes; HFD-fed mice
  adipocyte size: unchanged; also recorded: no significant differences
eWAT adipocytes; KKAy mice
  adipocyte size reduction: 9%
[1]
  IC50: 6 µM
HFD-T2D mice; 16 weeks HFD then intermittent dosing over 5 weeks
  reduction in body weight compared to vehicle: 14%
HFD-T2D mice; 16 weeks HFD then intermittent dosing over 5 weeks, vs vehicle
  improvement of NAFLD-activity score (NAS): > 2 points
HFD-T2D mice; histologic evaluation, vs vehicle
  hepatic steatosis and hepatocyte damage: significant reductions
HFD-T2D mice; vs vehicle
  hepatic triglyceride concentrations: lower
Primary hepatocytes
  pAS160 in primary hepatocytes: robustly induces
